In US20220160714A1, “METHODS FOR TREATING COLORECTAL CANCER” (ICAHN SCHOOL OF MEDICINE AT MOUNT SINAI, priority 2019, published 2022):
Where a name gives a salt, the structure may show the parent alone.

Tested on: patient's personalized Drosophila model 006.1
Experiment: Trametinib combination drug screen (Table 4B, experimental pupae numbers)
Assay type: in vivo
Method: After food was solidified, a mixture of experimental and control embryos (at a 1:2 ratio based on expected Mendelian ratios) were aliquoted into each drug/food tube (15 μl/tube). […] Embryos for drug screening were generated from the following cross in cages: w/Y; UAS-006.1; UAS ago^RNAi UAS-apc^RNAi/Stub-gal80-T Xw UAS-dicer2; +; byn-gal4 UAS-GFP tub-gal80^ts/TM6, Hu, Tb. Embryos were obtained from each cage for 4-5 consecutive days by providing daily a fresh apple juice plate with yeast paste. Egg lays were performed at 22° C. to minimize transgene expression during embryogenesis to prevent embryonic defects or lethality that could not potentially be rescued by drug feeding. After embryos were aliquoted, drug tubes were transferred to 25° C. to induce transgene expression. After 2 weeks, the number of surviving experimental pupae (EP) were counted in each tube.
DMSO and Trametinib alone served as controls. […] Statistical analysis was performed as described above.

[1] = drug screened in combination with trametinib
[2] = drug screened in combination with trametinib, mean of 8 replicates

| SMILES | EP (raw experimental pupae numbers), replicate 1 [1] | EP (raw experimental pupae numbers), replicate 2 [1] | EP (raw experimental pupae numbers), replicate 3 [1] | EP (raw experimental pupae numbers), replicate 4 [1] | EP (raw experimental pupae numbers), replicate 5 [1] | EP (raw experimental pupae numbers), replicate 6 [1] | EP (raw experimental pupae numbers), replicate 7 [1] | EP (raw experimental pupae numbers), replicate 8 [1] | EP mean [2] | EP mean (in vivo) | EP (raw experimental pupae numbers), replicate 1 (in vivo) | EP (raw experimental pupae numbers), replicate 2 (in vivo) | EP (raw experimental pupae numbers), replicate 3 (in vivo) | EP (raw experimental pupae numbers), replicate 4 (in vivo) | EP (raw experimental pupae numbers), replicate 5 (in vivo) | EP (raw experimental pupae numbers), replicate 6 (in vivo) | EP (raw experimental pupae numbers), replicate 7 (in vivo) | EP (raw experimental pupae numbers), replicate 8 (in vivo) |
| --- | --- | --- | --- | --- | --- | --- | --- | --- | --- | --- | --- | --- | --- | --- | --- | --- | --- | --- |
| O=c1ccc2ccc(OCCCCN3CCN(c4cccc5sccc45)CC3)cc2[nH]1 [brexpiprazole] | 0 | 0 | 1 | 1 | 2 | 0 | 3 | 1 | 1 | – | – | – | – | – | – | – | – | – |
| Cc1ccc(-n2nccn2)c(C(=O)N2CCN(c3nc4cc(Cl)ccc4o3)CC[C@H]2C)c1 [suvorexant] | 0 | 0 | 3 | 1 | 5 | 1 | 1 | 3 | – | 1.75 | – | – | – | – | – | – | – | – |
| COc1cc2c(cc1OC)CC(=O)N(CCCN(C)C[C@H]1Cc3cc(OC)c(OC)cc31)CC2 [ivabradine HCl] | 0 | 0 | 0 | 0 | 2 | 1 | 0 | 0 | 0.375 | – | – | – | – | – | – | – | – | – |
| CN[C@@H]1[C@@H](O)[C@@H](O[C@@H]2[C@@H](O)[C@H](O[C@H]3OC(CN)=CC[C@H]3N)[C@@H](N)C[C@H]2N)OC[C@]1(C)O [sisomicin] | 1 | 1 | 1 | 1 | 2 | 1 | 0 | 0 | 0.875 | – | – | – | – | – | – | – | – | – |
| CC(C)n1c(/C=C/C(O)CC(O)CC(=O)O)c(-c2ccc(F)cc2)c2ccccc21 (stereo not drawn) [fluvastatin] | 0 | 0 | 0 | 0 | 0 | 0 | 0 | 2 | 0.25 | – | – | – | – | – | – | – | – | – |
| C[C@H](CCC(=O)O)[C@H]1CC[C@H]2[C@@H]3[C@H](O)C[C@@H]4C[C@H](O)CC[C@]4(C)[C@H]3C[C@H](O)[C@]12C [cholic acid] | – | – | – | – | – | – | – | – | – | 1.375 | 1 | 0 | 2 | 1 | 1 | 1 | 3 | 2 |
| CCOc1cc([C@@H](CS(C)(=O)=O)N2C(=O)c3cccc(NC(C)=O)c3C2=O)ccc1OC [apremilast] | 0 | 0 | 2 | 0 | 3 | 0 | 0 | 0 | 0.625 | – | – | – | – | – | – | – | – | – |
| CCC(=O)O[C@]1(C(=O)SCF)[C@H](C)C[C@H]2[C@@H]3C[C@H](F)C4=CC(=O)C=C[C@]4(C)[C@@]3(F)[C@@H](O)C[C@@]21C [Fluticasone propionate] | 0 | 0 | 1 | 0 | 2 | 0 | 0 | 1 | 0.5 | – | – | – | – | – | – | – | – | – |
